For assay [1], the system named is NCI-H929-1051 (lenalidomide-resistant). The assay is described as follows: Cell proliferation assay (CTG, 120 h). To be noted: for IC50: Homo sapiens, 120 h. The format is cell-based, human. As for the experimental part:
(§1) Cell Culture Materials: Human multiple myeloma cell lines were purchased from the vendors and cultured at 37° C. with 5% CO2 in the media as indicated in Table 1. Lenalidomide and pomalidomide resistant cell lines were obtained by methods as generally described previously (Lopez-Girona et al Leukemia 2012; 26(11): 2335). All cell lines were kept in log phase, and cell density and viability were monitored by trypan blue exclusion using the Vi-cell XR cell viability analyzer (Beckman Coulter, Brea, CA).
Preparation of Solutions of Test Article: Compounds were plated into black 384-well plates (Corning Inc.) to a final DMSO volume of 0.1% assuming a maximal volume of 50 μL. A 10-point dose response starting at 10 μM with a 1:3 dilution was printed in duplicate by acoustic dispense using the EDC ATS-100 platform. Alternatively, the 10-point dose response starting at 10 μM with a 1:10 dilution, or starting at 100 nM with a 1:3 dilutions were used.
Cell Proliferation Assays: The effect of compounds on the proliferation/viability of the hematological cell lines (Table 1), was assessed after 120 h incubation using CTG (Promega), according to manufacturer's instructions. Hematological cell lines were dispensed into compound plates by a Multidrop Combi Reagent Dispenser (Thermo Scientific, Waltham, MA) at a concentration of 0.1×10^6 cells per mL in a 50 μL total volume. At 120 h, 25 μL per well of CTG was dispensed by a Multidrop Combi Reagent Dispenser and adenosine triphosphate (ATP) release by viable cells was measured as relative luminescence units after 30 minutes using the Envision platform.
Results. […] The MM cell lines selected for this study were lines sensitive and resistant to lenalidomide and/or pomalidomide (Table 1), two agents used in the clinic to treat myeloma patients. Proliferation was assessed using the CellTitre-Glo© assay. Results for cultures incubated with the compounds were normalized to results for control cultures for each cell line. The IC50 for inhibition of cell growth by the compounds was determined for each cell line using ActivityBase software.
Combination with Dexamethasone. The activity of pomalidomide with that of Compound 2 alone or in combination with dexamethasone was evaluated across a panel of MM cell lines. […] Table 3 summarizes the potency (IC50) of the single agent and dexamethasone combination studies performed in the H929-1051 cell line. […] Each IC50 is the average from at least 3 independent experiments. Proliferation was monitored on Day 5 using Cell Titer-Glo.

The subject of assay [2] is MM cell lines (NCI-H929, NCI-H929-1051, OPM2, OPM2-P10). In words: Cell proliferation assay (CTG, 120 h), four cell lines together. The format is cell-based. To be noted: Homo sapiens, range over four cell lines and both compounds, read-out: antiproliferative IC50 values (range). Here is the method: as §1
Preparation of Solutions of Test Article: Compounds were plated into black 384-well plates (Corning Inc.) to a final DMSO volume of 0.1% assuming a maximal volume of 50 μL. […]
Cell Proliferation Assays: The effect of compounds on the proliferation/viability of the hematological cell lines (Table 1), was assessed after 120 h incubation using CTG (Promega), according to manufacturer's instructions. […] At 120 h, 25 μL per well of CTG was dispensed by a Multidrop Combi Reagent Dispenser and adenosine triphosphate (ATP) release by viable cells was measured as relative luminescence units after 30 minutes using the Envision platform.
Results. […] Proliferation was assessed using the CellTitre-Glo© assay. […] The IC50 for inhibition of cell growth by the compounds was determined for each cell line using ActivityBase software.

A further assay has as its target T1, α1A adrenergic receptor (Homo sapiens, UniProt P35348).
T1 construct: host or cells: CHO cells
T1 sequence (P35348 1-466): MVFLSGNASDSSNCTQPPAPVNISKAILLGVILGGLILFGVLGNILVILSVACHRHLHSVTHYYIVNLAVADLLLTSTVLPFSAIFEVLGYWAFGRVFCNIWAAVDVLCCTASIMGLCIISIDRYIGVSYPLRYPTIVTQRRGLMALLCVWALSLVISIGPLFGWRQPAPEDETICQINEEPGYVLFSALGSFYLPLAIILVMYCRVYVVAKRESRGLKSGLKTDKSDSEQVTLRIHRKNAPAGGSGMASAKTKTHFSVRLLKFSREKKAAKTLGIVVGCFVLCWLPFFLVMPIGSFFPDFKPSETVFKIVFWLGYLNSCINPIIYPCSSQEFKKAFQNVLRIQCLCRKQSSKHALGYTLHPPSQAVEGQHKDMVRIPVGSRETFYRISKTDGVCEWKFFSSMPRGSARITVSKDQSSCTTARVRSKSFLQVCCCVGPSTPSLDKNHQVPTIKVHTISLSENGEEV
In words: α1A adrenergic receptor antagonist assay (calcium mobilization, CHO cells). The format is cell-based. Here is the method:
α1 Adrenergic and Dopamine D2 Receptors. Methods: Binding and functional assays for α1 adrenergic and dopamine D2 receptors were performed by Eurofins Cerep according to their methods.
Antagonist activity. The antagonistic effects of test compounds on the α1A and α1B adrenergic receptors were measured using human receptor-transfected Chinese hamster ovary (CHO) cells. Antagonist activity was determined by measuring compound effect on agonist (epinephrine)-induced calcium mobilization in the α1A receptor assay or cAMP levels in the α1B receptor assay. In these experiments, CHO cells were incubated in duplicate at room temperature with test article and epinephrine at 3 nM in the α1A receptor assays or at 3000 nM in the α1B receptor assay. Compound A was tested in the α1A receptor assay at 0.01-30 μM. […] Compound 1 and Compound 2 were assayed at 0.03 to 30 μM in the α1A receptor assay and 0.03 to 100 μM in the α1B receptor assay. In the α1A receptor assay, cytosolic calcium levels were measured fluorometrically using the fluorescent probe, Fluo4 Direct. Intracellular cAMP levels in the α1B adrenergic receptor assay were measured by homogenous time-resolved fluorescence (HTRF). The antagonism IC50 was defined as the concentration causing a half-maximum inhibition of control agonist response.

Another assay relates to RPMI-8226. The assay is described as follows: PBMC and MM cell treatment assay (single culture vs co-culture). The format is cell-based. To be noted: Homo sapiens, RPMI-8226, RPMI-8226, read-out: Immune-mediated Cell Killing IC50.
For a further assay, the system named is K562 cells. The assay is described as follows: Coculture of compound-treated IL-2-activated PBMCs with K562 cells. The format is cell-based, human. To be noted: for IC50: Homo sapiens, K562, IL-2-activated PBMCs treated 72 h, 4 h coculture, read-out: IC50 of compound-treated PBMCs for direct K562 cell killing. As for the experimental part:
Coculture Experiments with Peripheral Blood Mononuclear Cells and K562 Cells. Methods: Human Peripheral Blood Mononuclear Cell (PBMC) Preparation: PBMCs isolated from healthy donors were cultured in RPMI 1640 medium with 10% FBS at a density of 1×10^6 cells/mL.
Cell Culture: K562 cells were kept in log phase, and cell density and viability were monitored by trypan blue exclusion using the Vi-CELL® XR cell viability analyzer (Beckman Coulter, Brea, CA).
Assay Procedures: Freshly isolated human PBMCs were cultured with recombinant IL-2 at concentration of 20 units/mL for 72 h. Peripheral blood mononuclear cells were then spun down and re-suspended in fresh RPMI complete medium to 2×10^6 cells/mL. Cells were then treated with DMSO or compounds at the indicated concentrations and incubated for an additional 72 h. The PBMCs were then washed twice in fresh RPMI complete medium prior to coculture. K562 cells were re-suspended to a cell density of 1×10^6/mL and stained with 1 μM CellTrace CFSE according to manufacturer's instructions. The labeled K562 cells were then seeded into a 96-well round bottom plate at 1×10^5 cells/well. Peripheral blood mononuclear cells were then transferred into the same 96-well plate at a 1:15 ratio, in triplicate and incubated at 37° C. for 4 h. Specific target cell lysis by PBMC cells was measured using Annexin V-fluorescein isothiocyanate (FITC) and propidium iodide (PI) according to manufacturer's instructions and samples were run on the FACS Array scan. Non-labeled K562 cells, CellTrace CFSE-labeled K562 cells, and Annexin V-FITC- and PI labeled untreated K562 cells were included in each assay as controls.

[3] abbreviates: CTG, read-out: NCI-H929.1051 120 h IC50.
Setting [4] is: read-out: 0.01 μM Dex Combo IC50, H929-1051, Day 5, in combination with 0.01 μM dexamethasone.
[5] abbreviates: read-out: 0.1 μM Dex Combo IC50, H929-1051, Day 5, in combination with 0.1 μM dexamethasone.
The mark [6] stands for this setting: read-out: 1 μM Dex Combo IC50, H929-1051, Day 5, in combination with 1 μM dexamethasone.
Setting [7] is: H929-1051, Day 5 Cell Titer-Glo, single agent, read-out: Single Agent IC50.

Where two headings read alike, the source gives them in different places.

As for `N#Cc1ccc(N2CCN(Cc3ccc(COc4cccc5c4CN(C4CCC(=O)NC4=O)C5=O)cc3)CC2)c(F)c1` (racemic) [Compound 1, 4-(4-(4-(((2-(2,6-dioxopiperidin-3-yl)-1-oxoisoindolin-4-yl)oxy)methyl)benzyl)piperazin-1-yl)-3-fluorobenzonitrile], the IC50 in assay [1] (setting [3]) was 2.5 nM; in assay [2], 0.07 to 19 nM; at α1A adrenergic receptor it was 980 nM.

Regarding `N#Cc1ccc(N2CCN(Cc3ccc(COc4cccc5c4CN([C@H]4CCC(=O)NC4=O)C5=O)cc3)CC2)c(F)c1` [Compound 2, (S)-4-(4-(4-(((2-(2,6-dioxopiperidin-3-yl)-1-oxoisoindolin-4-yl)oxy)methyl)benzyl)piperazin-1-yl)-3-fluorobenzonitrile], the half-inhibitory concentration (IC50) with RPMI-8226 (Co-culture with PBMCs) came to 0.0839 nM; in the assay on RPMI-8226 (Single culture), 13.4 nM; in assay [1] (setting [4]), 0.41 nM; in assay [1] (setting [5]), 0.0429 nM; in assay [1] (setting [6]) it was 0.018 nM; in assay [1] (setting [7]) it was 0.98 nM. The IC50 in assay [1] (setting [3]) was 1 nM; in assay [2], 0.07 to 19 nM; on α1A adrenergic receptor, 580 nM; with K562 cells, 5900 nM. Further, the “potency of single agent versus pomalidomide-dexamethasone combination” value in assay [1] (H929-1051) is 10 fold. The “potency relative to lenalidomide-treated PBMCs” value in the assay on K562 cells (50% direct K562 cell killing) is about 2600 fold. The “potency relative to pomalidomide-treated PBMCs” value with K562 cells (50% direct K562 cell killing) is reported as about 600 fold.

In the case of `O=C1CC[C@H](N2Cc3c(OCc4ccc(CN5CCN(c6ccc(F)cc6F)CC5)cc4)cccc3C2=O)C(=O)N1` [Compound B], on α1A adrenergic receptor (epinephrine 3 nM, calcium mobilization, read-out: Antagonism IC50 α1A), the IC50 turned out to be 6.4 nM.

`Nc1cccc2c1C(=O)N(C1CCC(=O)NC1=O)C2=O` (stereo not drawn) [Pomalidomide, pomalidomide]: the IC50 was 67.6 nM in the assay with RPMI-8226 (Co-culture with PBMCs); over 10000 nM in the assay with RPMI-8226 (Single culture); 3840 nM in assay [1] (setting [4]); 118 nM in assay [1] (setting [5]); 18.8 nM in assay [1] (setting [6]); over 10000 nM in assay [1] (setting [7]). The half-inhibitory concentration (IC50) in the assay on K562 cells was determined as 4 nM.

The record behind these values is patent publication US12029738B2, “Antiproliferative compounds and methods of use thereof” (Celgene Corporation, priority 2017, dated 2024).
